Test results as given in patent US11090304B2 (Amgen Inc., priority 2018, dated 2021).
Read-outs that look alike come from different tables or passages of the source.

Tests used:
[1] = system: Phosphorylation of ERK1/2 in MIA PaCa-2 cells; test: Phospho-ERK1/2 MSD assay in MIA PaCa-2 cells; assay type: cell-based; details: Homo sapiens
Procedure, shortened: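 In the procedure, cells were plated a day ahead at 25,000 per well. Next, a dilution series of compound in growth medium was added for 2 or 4 h. EGF (10 ng/mL) stimulation for 10 min preceded washing and RIPA lysis. Lysate phospho-ERK1/2 was read by MSD, with IC50 derived by 4-parameter logistic analysis.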

[2] = system: Phosphorylation of ERK1/2 in A549 cells; test: Phospho-ERK1/2 MSD assay in A549 cells; assay type: cell-based; details: Homo sapiens
Procedure: For compounds in Table 89, the following assay conditions were employed:
Phospho-ERK1/2 MSD Assay:
Sixteen hours prior to compound treatment, MIA PaCa-2 or A549 cells were seeded in 96-well cell culture plates at a density of 25,000 cells/well and incubated at 37° C., 5% CO2. A compound dose-response titration was diluted in growth media, added to appropriate wells of a cell culture plate, and then incubated at 37° C., 5% CO2 for 2 or 4 hours (see Table 15). Following compound treatment, cells were stimulated with 10 ng/mL EGF (Roche 11376454001) for 10 min, washed with ice-cold Dulbecco's phosphate-buffered saline, no Ca^2+ or Mg^2+ (ThermoFisher Scientific 14190144), and then lysed in RIPA buffer (50 mM Tris-HCl pH 7.5, 1% Igepal, 0.5% sodium deoxycholate, 150 mM NaCl, and 0.5% sodium dodecyl sulfate) containing protease inhibitors (Roche 4693132001) and phosphatase inhibitors (Roche 4906837001). Phosphorylation of ERK1/2 in compound-treated lysates was assayed using Phospho-ERK1/2 Whole Cell Lysate kits (Meso Scale Discovery K151DWD) according to the manufacturer's protocol. Assay plates were read on a Meso Scale Discovery Sector Imager 6000, and data were analyzed using a 4-parameter logistic model to calculate IC50 values.

[3] = target: GDP-bound KRAS protein (aa 1-169), containing both G12C and C118A amino acid substitutions (Homo sapiens, UniProt P01116, C118A/G12C); test: Coupled nucleotide exchange assay (SOS-mediated, AlphaScreen); assay type: biochemical; details: for Coupled exchange IC50 (5 min): 5 min compound pre-incubation; for Coupled exchange IC50 (2 h): 2 h compound pre-incubation
[4] = MIA PaCa-2, 2 h, read-out: p-ERK IC50 (2 h; MIA PaCa-2), 2 h compound treatment
[5] = A549, 2 h, read-out: p-ERK IC50 (2 h; A549), 2 h compound treatment
[6] = MIA PaCa-2, 4 h, read-out: p-ERK IC50 (4 h; MIA PaCa-2), 4 h compound treatment
[7] = A549, 4 h, read-out: p-ERK IC50 (4 h; A549), 4 h compound treatment

GDP-bound KRAS protein (aa 1-169), containing both G12C and C118A amino acid substitutions, sequence (P01116 1-169 isoform P01116-2 G12C/C118A): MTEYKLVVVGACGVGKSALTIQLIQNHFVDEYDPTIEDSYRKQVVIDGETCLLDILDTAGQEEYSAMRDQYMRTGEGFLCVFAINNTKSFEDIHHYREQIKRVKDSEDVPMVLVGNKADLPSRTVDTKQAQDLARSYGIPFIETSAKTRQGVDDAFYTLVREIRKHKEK

SMILES	IC50 [1, 4]	IC50 [2, 5]	Coupled exchange IC50 (5 min) [3]	IC50 [1, 6]	IC50 [2, 7]	Coupled exchange IC50 (2 h) [3]
C=CC(=O)N1CCN(c2nc(=O)n(-c3c(C)ccnc3C(C)C)c3nc(-c4ccccc4F)c(Cl)nc23)[C@@H](C)C1 (single isomer, unassigned) [Example 111-1]	102 nM	≥ 10 µM	0.076 | nda μM			
C=CC(=O)N1CCN(c2nc(=O)n(-c3c(C)cccc3C)c3nc(-c4c(O)cccc4F)c(Cl)cc23)CC1 [Example 8-8, 6-chloro-1-(2,6-dimethylphenyl)-7-(2-fluoro-6-hydroxyphenyl)-4-(4-(2-propenoyl)-1-piperazinyl)pyrido[2,3-d]pyrimidin-2(1H)-one]	327 nM		0.653 µM	143 nM	≥ 100 µM	0.117 µM
C=CC(=O)N1CCN(c2nc(=O)n(C(CC)CC)c3nc(Cl)c(Cl)cc23)[C@@H](C)C1 [Example 54-3, 6,7-dichloro-4-((2S)-2-methyl-4-(2-propenoyl)-1-piperazinyl)-1-(3-pentanyl) pyrido[2,3-d]pyrimidin-2(1H)-one]				8580 nM	≥ 100 µM	nda | 0.781 μM
C=CC(=O)N1CCN(c2nc(=O)n(CC3(C(F)(F)F)CC3)c3nc(-c4c(O)cccc4F)c(Cl)cc23)[C@@H](C)C1 [Example 54-5, 6-chloro-7-(2-fluoro-6-hydroxyphenyl)-4-((2S)-2-methyl-4-(2-propenoyl)-1-piperazinyl)-1-((1-(trifluoromethyl)cyclopropyl)methyl)pyrido [2,3-d]pyrimidin-2(1H)-one]	554 nM	≥ 10 µM	0.445 | nda μM			
C=CC(=O)N1CCN(c2nc(=O)n(CC3(C)CC3)c3nc(-c4c(O)cccc4F)c(Cl)cc23)[C@@H](C)C1 [Example 54-6, 6-chloro-7-(2-fluoro~ 6-hydroxyphenyl)-1-((1-methylcyclopropyl)methyl)-4-((2S)-2-methyl-4-(2-propenoyl)-1-piperazinyl) pyrido[2,3-d]pyrimidin-2(1H)-one]	528 nM	≥ 10 µM	0.306 | nda μM			
C=CC(=O)N1CCN(c2nc(=O)n(-c3cccnc3C(C)C)c3nc(-c4ccccc4F)c(Cl)cc23)[C@@H](C)C1 [Example 54-9, 6-chloro-7-(2-fluorophenyl)-4-((2S)-2-methyl-4-(2-propenoyl)-1-piperazinyl)-1-(2-(2-propanyl)-3-pyridinyl) pyrido[2,3-d]pyrimidin-2(1H)-one]	86 nM	≥ 10 µM	0.147 | nda μM			
C=CC(=O)N1CCN(c2nc(=O)n(-c3ccccc3C3CCC3)c3nc(-c4c(O)cccc4F)c(Cl)cc23)[C@@H](C)C1 [Example 54-10, 6-chloro-1-(2-cyclobutylphenyl)-7-(2-flnoro-6-hydroxyphenyl)-4-((2S)-2-methyl-4-(2-propenoyl)-1-piperazinyl) pyrido[2,3-d]pyrimidin-2(1H)-one]	182 nM	≥ 10 µM	0.185 | nda μM			
C=CC(=O)N1CCN(c2nc(=O)n(-c3cccnc3C(C)C)c3nc(-c4c(O)cccc4F)c(Cl)cc23)[C@@H](C)C1 [Example 54-11, 6-chloro-7-(2-fluoro-6-hydroxyphenyl)-4-((2S)-2-methyl-4-(2-propenoyl)-1-piperazinyl)-1-(2-(2-propanyl)-3-pyridinyl) pyrido[2,3-d]pyrimidin-2(1H)-one]	63 nM	≥ 10 µM	0.069 | nda μM			
C=CC(=O)N1CCN(c2nc(=O)n(-c3ccccc3C3CCC3)c3nc(-c4ccccc4F)c(Cl)cc23)[C@@H](C)C1 [Example 54-12, 6-chloro-1-(2-cydobutyl-phenyl)-7-(2-fluorophenyl)-4-((2S)-2-methyl-4-(2-propenoyl)-1-piperazinyl) pyrido[2,3-d]pyrirnidin-2(1H)-one]	162 nM	≥ 10 µM	0.289 | nda μM			
C=CC(=O)N1CCN(c2nc(=O)n(-c3nccn3C(C)C)c3nc(-c4c(O)cccc4F)c(Cl)cc23)[C@@H](C)C1 [Example 54-13, 6-chloro-7-(2-fluoro-6-hydroxy-phenyl)-4-((2S)-2-methyl-4-(2-propenoyl)-1-piperazinyl)-1-(1-(2-propanyl)-1H-imidazol-2-yl)pyrido[2,3-d]pyrimidin-2(1H)-one]	2560 nM	≥ 10 µM	0.811 | nda μM			
C=CC(=O)N1CCN(c2nc(=O)n(-c3c(CC)cccc3CC)c3nc(-c4ccccc4C4CC4)c(Cl)cc23)[C@@H](C)C1 [Example 54-22, 6-chloro-7-(2-cyclopropyl-phenyl)-1-(2,6-diethyl-phenyl)-4-((2S)-2-methyl-4-(2-propenoyl)-1-piperazinyl) pyrido[2,3-d]pyrimidin-2(1H)-one]	245 nM	≥ 33.3 µM	0.347 µM			0.097 µM
C=CC(=O)N1CCN(c2nc(=O)n(-c3c(CC)cccc3CC)c3nc(-c4ccccc4C(C)C)c(Cl)cc23)[C@@H](C)C1 [Example 54-23, 6-chloro-1-(2,6-diethylphenyl)-4-((2S)-2-methyl-4-(2-propenoyl)-1-piperazinyl)-7-(2-(2-propanyl)phenyl)pyrido [2,3-d]pyrimidin-2(1H)-one]	122 nM	≥ 10 µM	0.103 | nda μM			
C=CC(=O)N1CCN(c2nc(=O)n(-c3nocc3C3CC3)c3nc(-c4c(O)cccc4F)c(Cl)cc23)[C@@H](C)C1 [Example 54-24, 6-chloro-1-(4-cyclopropyl-1,2-oxazol-3-yl)-7-(2-fluoro-6-hydroxyphenyl)-4-((2S)-2-methyl-4-(2-propenoyl)-1-piperazinyl) pyrido[2,3-d]pyrimidin-2(1H)-one]	942 nM	≥ 10 µM	0.797 | nda μM			
C=CC(=O)N1CCN(c2nc(=O)n(-c3c(Cl)cccc3Cl)c3nc(-c4ccccc4F)c(Cl)cc23)[C@@H](C)C1 [Example 54-30, 6-chloro-1-(2,6-dichlorophenyl)-7-(2-fluorophenyl)-4-((2S)-2-methyl-4-(2-propenoyl)-1-piperazinyl) pyrido[2,3-d]pyrimidin-2(1H)-one]	453 nM	≥ 10 µM	0.824 | nda μM			
C=CC(=O)N1CCN(c2nc(=O)n(-c3ccccc3CC)c3nc(-c4ccccc4F)c(Cl)cc23)[C@@H](C)C1 [Example 54-31, 6-chloro-1-(2-ethylphenyl)-7-(2-fluorophenyl)-4-((2S)-2-methyl-4-(2-propenoyl)-1-piperazinyl) pyrido[2,3-d]pyrimidin-2(1H)-one]	237 nM	≥ 10 µM	0.395 | nda μM			
C=CC(=O)N1CCN(c2nc(=O)n(-c3ccccc3Cl)c3nc(-c4ccccc4F)c(Cl)cc23)[C@@H](C)C1 [Example 54-32, 6-chloro-1-(2-chlorophenyl)-7-(2-fluorophenyl)-4-((2S)-2-methyl-4-(2-propenoyl)-1-piperazinyl) pyrido[2,3-d]pyrimidin-2(1H)-one]	796 nM	≥ 10 µM	1.963 | nda μM			
C=CC(=O)N1CCN(c2nc(=O)n(-c3c(Cl)cccc3Cl)c3nc(-c4c(O)cccc4F)c(Cl)cc23)[C@@H](C)C1 [Example 54-33, 6-chloro-1-(2,6-dichlorophenyl)-7-(2-fluoro-6-hydroxyphenyl)-4-((2S)-2-methyl-4-(2-propenoyl)-1-piperazinyl) pyrido[2,3-d]pyrimidin-2(1H)-one]	215 nM	≥ 10 µM	0.176 | nda μM			
C=CC(=O)N1CCN(c2nc(=O)n(-c3c(C)cncc3C)c3nc(-c4c(O)cccc4F)c(Cl)cc23)[C@@H](C)C1 [Example 54-41, 6-chloro-1-(3,5-dimethyl-4-pyridinyl)-7-(2-fluoro-6-hydroxyphenyl)-4-((2S)-2-methyl-4-(2-propenoyl)-1-piperazinyl) pyrido[2,3-d]pyrimidin-2(1H)-one]	2900 nM	≥ 10 µM	0.724 | nda μM			
C=CC(=O)N1CCN(c2nc(=O)n(-c3c(C)ncnc3C)c3nc(-c4c(O)cccc4F)c(Cl)cc23)[C@@H](C)C1 [Example 54-48, 6-chloro-1-(4,6-dimethyl-5-pyrimidinyl)-7-(2-fluoro-6-hydroxyphenyl)-4-((2S)-2-methyl-4-(2-propenoyl)-1-piperazinyl) pyrido[2,3-d]pyrimidin-2(1H)-one]	2380 nM	≥ 10 µM	0.779 | nda μM			
